Paper PMC4680881 (Scientific Reports, 2015)
Where “and” joins values, the source holds several entries; their conditions need not be identical. Equal values may be shown once. Read-outs that look alike come from different tables or passages of the source.

Tests used:
PrP^Sc deposits [1] = biological target: T1, PrP^Sc deposits (Mus musculus, UniProt P04925); conditions: 100 μM compound; for Fluorescence staining: brain sections from mock-infected mice; for Fluorescence staining of PrP^Sc deposits: brain slices from mBSE-infected mice
rMoPrP aggregates [2] = biological target: T2, rMoPrP aggregates (Mus musculus, UniProt P04925); experiment: biochemical; assay type: binding
amyloid plaques = conditions: cited from earlier work
Aβ aggregates = conditions: cited from earlier work
rMoPrP aggregates [3] = biological target: T2, rMoPrP aggregates; experiment: biochemical; assay type: binding; remark: listed apart in the source
[4] = mouse, in vivo; cited from earlier work
Aβ (1–42) fibrils = conditions: cited from earlier work
PrP^Sc deposits [5] = biological target: T1, PrP^Sc deposits
PrP^Sc deposits [6] = biological target: T1, PrP^Sc deposits; assay type: in vivo
PrP^Sc deposits [7] = biological target: T1, PrP^Sc deposits; assay type: in vivo; remark: listed apart in the source

T1 sequence (P04925 23-230 limits assumed): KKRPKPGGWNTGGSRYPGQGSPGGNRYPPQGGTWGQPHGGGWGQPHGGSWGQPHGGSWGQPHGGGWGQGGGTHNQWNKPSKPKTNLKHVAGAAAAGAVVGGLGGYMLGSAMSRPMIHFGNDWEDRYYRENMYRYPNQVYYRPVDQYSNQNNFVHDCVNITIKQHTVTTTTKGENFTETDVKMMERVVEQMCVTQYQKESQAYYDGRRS
T2 sequence (P04925 23-231 limits assumed): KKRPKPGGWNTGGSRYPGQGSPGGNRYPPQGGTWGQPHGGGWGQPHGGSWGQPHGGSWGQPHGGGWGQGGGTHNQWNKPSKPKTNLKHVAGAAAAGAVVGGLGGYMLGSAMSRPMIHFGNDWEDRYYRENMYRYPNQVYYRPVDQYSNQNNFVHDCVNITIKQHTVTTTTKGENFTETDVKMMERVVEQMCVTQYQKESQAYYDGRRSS

CNc1ccc(/C=C/c2cc(=O)c3cc(I)ccc3o2)cc1 [SC-NHMe, (E)-6-Iodo-2-(4-(methylamino)styryl)-chromone]
Fluorescence staining (PrP^Sc deposits [1]): no significant signals
Fluorescence staining of PrP^Sc deposits (PrP^Sc deposits [1]): clear fluorescence images
Ki (rMoPrP aggregates [2]): 17 ± 5.41 nM

CN(C)c1ccc(/C=C/c2cc(=O)c3cc(I)ccc3o2)cc1 [SC-NMe2, (E)-6-Iodo-2-(4-(dimethylamino)styryl)-chromone]
Staining of amyloid plaques (amyloid plaques): clearly stained amyloid plaques
Binding affinity for Aβ aggregates (Aβ aggregates): high binding affinities
Bmax (rMoPrP aggregates [3]): 36.3 pmol/nmol protein
Kd (rMoPrP aggregates [3]): 24.5 nM
Brain uptake and washout [4]: low brain uptake and slow washout
Fluorescence staining (PrP^Sc deposits [1]): Only background signals
Fluorescence staining of PrP^Sc deposits (PrP^Sc deposits [1]): clearly labelled PrP^Sc deposits

O=c1cc(/C=C/c2ccc(O)cc2)oc2ccc(I)cc12 [SC-OH, (E)-6-Iodo-2-(4-hydroxylstyryl)-chromone]
Ki (rMoPrP aggregates [2]): 35 ± 3.72 nM

CN(C)c1ccc(-c2cc(=O)c3cc([125I])ccc3o2)cc1 [[^125I]FL-NMe2]
Bmax (rMoPrP aggregates [3]): 11.2 pmol/nmol protein
Kd (rMoPrP aggregates [3]): 201 nM

Nc1ccc(/C=C/c2cc(=O)c3cc(I)ccc3o2)cc1 [SC-NH2, (E)-6-Iodo-2-(4-aminostyryl)-chromone]
Ki (rMoPrP aggregates [2]): 58.7 ± 5.93 nM
fold lower binding affinity than SC-OMe (rMoPrP aggregates [2]): 2.8 fold

CN(C)c1ccc(C=C2Oc3ccc(I)cc3C2=O)cc1 [AR-NMe2, 2-[(4-Dimethylaminophenyl)methylene]-5-iodo-3(2H)-benzofuranone]
Staining of amyloid plaques (amyloid plaques): clearly stained amyloid plaques
Binding affinity for Aβ aggregates (Aβ aggregates): high binding affinities
Fluorescence staining (PrP^Sc deposits [1]): Only background signals

CN(C)c1ccc(/C=C/C(=O)c2ccc([125I])cc2)cc1 [[^125I]CL-NMe2]
Bmax (rMoPrP aggregates [3]): 16.7 pmol/nmol protein
Kd (rMoPrP aggregates [3]): 246 nM and 224 nM

CN(C)c1ccc(-c2cc(=O)c3cc(I)ccc3o2)cc1 [FL-NMe2, 6-Iodo-4′-dimethyaminoflavone]
Staining of amyloid plaques (amyloid plaques): clearly stained amyloid plaques
Binding affinity for Aβ aggregates (Aβ aggregates): high binding affinities
Fluorescence staining (PrP^Sc deposits [1]): Only background signals

COc1ccc(/C=C/c2cc(=O)c3cc(I)ccc3o2)cc1 [SC-OMe, (E)-6-Iodo-2-(4-methoxystyryl) chromone]
Fluorescence staining (PrP^Sc deposits [1]): no significant signals
Fluorescence staining of PrP^Sc deposits (PrP^Sc deposits [1]): clear fluorescence images
Ki (rMoPrP aggregates [2]): 20.8 ± 0.69 nM

CN(C)c1ccc(/C=C/c2cc(=O)c3cc([125I])ccc3o2)cc1 [[^125I]SC-NMe2]
fold higher binding affinity compared with [125I]AR-NMe2 (rMoPrP aggregates [3]): 3.5 fold
Kd (rMoPrP aggregates [3]): 24.5 nM and 36.7 nM

O=c1cc(/C=C/c2ccc(OCCO)cc2)oc2ccc(I)cc12 [SC-OEtOH, (E)-6-Iodo-2-(4-hydroxyethoxystyryl)-chromone]
Ki (rMoPrP aggregates [2]): 221 ± 46.7 nM

Ic1ccc2nc(-c3ccc(-c4ccn[nH]4)cc3)cn2c1 [^125I-DRM106]
Kd (Aβ (1–42) fibrils): 10.1 nM

CNc1ccc(C=Cc2cc(=O)c3cc([125I])ccc3o2)cc1 [[^125I]SC-NHMe]
In vitro autoradiography, distribution of radioactivity (PrP^Sc deposits [5]; brain sections of mock-infected mice): homogeneous distribution of radioactivity
In vitro autoradiography, signal in PrP^Sc deposit region (PrP^Sc deposits [5]; mBSE-infected mice, right corpus callosum region): high level of background and no significant accumulation of prion deposits

CN(C)c1ccc(/C=C/C(=O)c2ccc(I)cc2)cc1 [CL-NMe2, (E)-3-(4-(Dimethylamino)phenyl)-1-(4-iodophenyl) prop-2-en-1-one]
Staining of amyloid plaques (amyloid plaques): clearly stained amyloid plaques
Binding affinity for Aβ aggregates (Aβ aggregates): high binding affinities
Fluorescence staining (PrP^Sc deposits [1]): Only background signals

[125I]c1ccc2nc(-c3ccc(-c4ccn[nH]4)cc3)cn2c1 [^125I-DRM106]
Bmax (Aβ (1–42) fibrils): 34.3 pmol/nmol

COc1ccc(/C=C/c2cc(=O)c3cc(I)ccc3o2)cc1OC [SC-(OMe)2, (E)-6-Iodo-2-(3,4-dimethoxystyryl) chromone]
Fluorescence staining (PrP^Sc deposits [1]): no significant signals
Fluorescence staining of PrP^Sc deposits (PrP^Sc deposits [1]): clear fluorescence images
Ki (rMoPrP aggregates [2]): 26.6 ± 1.48 nM

CN(C)c1ccc(/C=C2\Oc3ccc([125I])cc3C2=O)cc1 [[^125I]AR-NMe2]
Bmax (rMoPrP aggregates [3]): 34.9 pmol/nmol protein
Kd (rMoPrP aggregates [3]): 125 nM and 119 nM

COc1ccc(/C=C/c2cc(=O)c3cc([123I])ccc3o2)cc1 [[^123I]SC-OMe]
Ex vivo autoradiography, accumulation in PrP^Sc-positive regions (PrP^Sc deposits [6]; mBSE-infected mice): significant [^123I]SC-OMe accumulation
Ex vivo autoradiography, accumulation in contralateral site (PrP^Sc deposits [6]; mBSE-infected mice): no significant accumulation
Ex vivo autoradiography, binding in mock-infected mouse brain (PrP^Sc deposits [6]; mock-infected mice): low signals
%SUV (PrP^Sc deposits [7]; early period (15–48 min), PBS-injected ipsilateral hemisphere of mock-infected mice): 13.4 %SUV
%SUV (PrP^Sc deposits [7]; early period (15–48 min), PrP^Sc-positive upper right hemisphere of mBSE-infected mouse): 46.5 %SUV
%SUV (PrP^Sc deposits [7]; early period (15–48 min), contralateral site of mBSE-infected mice): 23.3 %SUV
%SUV (PrP^Sc deposits [7]; late period (50–85 min), contralateral site of mBSE-infected mice): 3.7 %SUV
%SUV (PrP^Sc deposits [7]; late period (50–85 min), ipsilateral site of mock-infected mice): 3.5 %SUV
%SUV (PrP^Sc deposits [7]; late period (50–85 min), right hemisphere of mBSE-infected mice): 7.5 %SUV
